Patent US8476196B2, “Control of harmful algal blooms by induction of programmed cell death” (University of South Florida, priority 2009, dated 2013)

Columns and labels:
[1] = system: Karenia brevis (Piney Island A2); experiment: K. brevis culture treatment, intact cell counts (light microscope / FlowCam); type: cell-based; details: for cell appearance in FlowCam images: 100 μM final concentration, treated flasks
Procedure: The present inventors have determined that NO may be used to trigger cell death in Karenia brevis and potentially other harmful algae. The response to low concentrations occurs within 24 hours and varies with concentration. To describe the dose response, cultures of K. brevis (Piney Island A2) were exposed to varied concentrations of the nitric oxide donor diethylamine NONOate sodium salt hydrate or DEA NONOate (IUPAC name: sodium N-(diethylamino)-N-oxidonitrous amide).
Work described by Chung et al. (2008) employed 500 μM DEA NO to elicit ScDSP-1 expression in Skeletonema costatum. The present inventors sought to determine the low end of the dose response, if any effect, in K. brevis. Trials therefore tested the effect of DEA NONOate concentrations ranging from 100 μM to 0.1 μM. For each trial, K. brevis cultures were grown in L1 media. Cultures were diluted 1:1 from a stock flask into a total volume of 125 mL in 250-mL acid washed and autoclaved flasks. Cultures were allowed to recover for 2-4 days prior to treatment. Immediately prior to treatment, DEA NONOate (Sigma-Aldrich, St. Louis, Mo.) was dissolved from its powdered form in sterile nuclease-free water. The solution was made to a concentration of 1 mg mL^−1. Two trials were performed to delineate responses to different concentrations of NO. In each case, the appropriate volume of DEA NONO solution was added and the cultured swirled by hand gently to mix the solution. Control flasks were also used for each trial; these received only an aliquot of the water used for dissolving DEA NONOate, equal to the largest volume administered to treatment flasks for that trial. At the concentration of 1 mg mL^−1, volumes of DEA NONO solution added ranged from 1.9 mL to 1.9 μL for 100 μM to 0.1 μM final concentrations in culture flasks. Three replicate flasks were used for each concentration and negative controls. Prior to treatment and at each sampling point after treatment, 5 mL of culture were removed for counting. A 1 mL aliquot was imaged/counted on the FlowCam flow-through microscope and the remainder was stained with Lugol's iodine solution and counted by light microscope on a gridded Sedgewick counting slide (1 mm^2 grid size). For slide counting, 50-70 grid squares were counted for each sample. Although counts were obtained for most samples by FlowCam and light microscopy, the light microscope counts were used for recording quantitative data while FlowCam images were used as a record of cell appearances.

[2] = system: Karenia brevis (Piney Island A2); experiment: as above; type: cell-based; details: 20 μM final concentration, higher-density cultures, T=2 days, two replicates
caspase 3 = experiment: Colorimetric caspase-like enzyme activity in K. brevis, caspase 3; type: cell-based, Karenia brevis
Procedure: (§1) Since caspase activity is a hallmark of PCD, experiments were conducted to examine caspase-like enzyme activity in K. brevis. The activity of enzymes that are similar to caspase-3 and caspase-8 were examined. The assays use a commercially available kit (MBL International, Woburn, Mass.) to measure the protease activity specific to certain amino acid sequence motifs. A short time series was performed to measure upregulation of caspase-like activity due to exposure to NO. NO was produced from the compound DEA-NONOate (use of this is previously described herein). […] Based on these findings, there is at least a 2-3 fold up-regulation of caspase-like activity due to NO exposure at 50-100 micromolar. This provides evidence that K. brevis death due to NO exposure is mediated by PCD pathways in the cells. This activity appears rapidly (within 20 minutes), and can decline rapidly (by 120 minutes). The decline is presumably due to actual death of the cells, since at the 120 minute mark, many cells were already in the process of lysis when viewed microscopically.

caspase 8 = experiment: Colorimetric caspase-like enzyme activity in K. brevis, caspase 8; type: cell-based, Karenia brevis
Procedure: as §1

caspase-like activity [3] = experiment: Caspase-like activity in K. brevis, summary statements; type: cell-based, Karenia brevis
Procedure: as §1

ScDSP-1 = details: Skeletonema costatum; cited from earlier work
caspase-like activity [4] = details: pretreatment before supplementation of NO donors; cited from earlier work
[5] = Experiment 1, 100 uM NO, 60 min
[6] = Experiment 1, 100 uM NO, 120 min

Molecule: CCN(CC)N([O-])N=O.[Na+] [DEA NONOate, sodium N-(diethylamino)-N-oxidonitrous amide, reference compound]
- cell appearance in FlowCam images [1]: all particles imaged by the FlowCam resembled the disrupted cells
- cell appearance in FlowCam images ([1]; listed as DEA NONO): disrupted
- intact cells present ([1]; 100 μM, 1 day post-treatment): no intact cells were observed
- intact cells present ([1]; 100 μM, 2 days post-treatment): no intact cells were observed
- decrease of average intact cell count from pre-treatment counts [2]: 98.6%

Molecule: CC(C)C[C@H](NC(=O)[C@H]1O[C@@H]1C(=O)O)C(=O)NCCCCN=C(N)N [E-64, L-transepoxysuccinyl-leucylamido-[4-guanidino]butane, reference compound]
- protection against NO-induced mortality ([1]; E-64 10 μM added with 20 μM NO): no protection

Molecule: [N]=O [NO, nitric oxide]
- cell counts of surviving cells (recovery) ([1]; 10 μM, T=5 days): increased to greater than pre-treatment numbers
- intact cells present ([1]; 100 μM, 1 day post-treatment): no intact cells were present
- cell death ([1]; 100 μM, 24 hours): complete cell death
- intact cells present ([1]; 100 μM, 2 days post-treatment): no intact cells were present
- mortality at 10 µM ([1]; Karenia brevis, 10 μM, second trial (FIG. 3), read-out: mortality / reduction of intact cells from pre-treatment numbers): ~50%
- mortality at 20 µM ([1]; Karenia brevis, 20 μM NO (FIG. 4)): ~50%
- time in which response to low concentrations occurs ([1]; low concentrations): ≤ 24 h
- effect on intact cell numbers ([1]; lower concentrations, 1 μM or less (0.1 μM, 1 μM)): no effect
- Absorbance of colorimetric caspase cleavage product, caspase 3 (caspase 3; [5]): 0.014
- Upregulation vs. control (fold), caspase 3 (caspase 3; [5]): 14 fold
- Absorbance of colorimetric caspase cleavage product, caspase 3 (caspase 3; [6]): 0.001
- Upregulation vs. control (fold), caspase 3 (caspase 3; [6]): 1 fold
- Absorbance of colorimetric caspase cleavage product, caspase 3 (caspase 3; Experiment 2, 50 uM NO, 20 min): 0.016
- Upregulation vs. control (fold), caspase 3 (caspase 3; Experiment 2, 50 uM NO, 20 min): 2.7 fold
- Absorbance of colorimetric caspase cleavage product, caspase 3 (caspase 3; Experiment 2, 50 uM NO, 40 min): 0.016
- Upregulation vs. control (fold), caspase 3 (caspase 3; Experiment 2, 50 uM NO, 40 min): 2.7 fold
- Absorbance of colorimetric caspase cleavage product, caspase 3 (caspase 3; Experiment 2, 50 uM NO, 60 min): 0.013
- Upregulation vs. control (fold), caspase 3 (caspase 3; Experiment 2, 50 uM NO, 60 min): 2.2 fold
- Absorbance of colorimetric caspase cleavage product, caspase 8 (caspase 8; [5]): 0.017
- Upregulation vs. control (fold), caspase 8 (caspase 8; [5]): 2.4 fold
- Absorbance of colorimetric caspase cleavage product, caspase 8 (caspase 8; [6]): 0.006
- Upregulation vs. control (fold), caspase 8 (caspase 8; [6]): 0.9 fold
- Absorbance of colorimetric caspase cleavage product, caspase 8 (caspase 8; Experiment 2, 50 uM NO, 20 min): 0.021
- Upregulation vs. control (fold), caspase 8 (caspase 8; Experiment 2, 50 uM NO, 20 min): 2.1 fold
- Absorbance of colorimetric caspase cleavage product, caspase 8 (caspase 8; Experiment 2, 50 uM NO, 40 min): 0.019
- Upregulation vs. control (fold), caspase 8 (caspase 8; Experiment 2, 50 uM NO, 40 min): 1.9 fold
- Absorbance of colorimetric caspase cleavage product, caspase 8 (caspase 8; Experiment 2, 50 uM NO, 60 min): 0.018
- Upregulation vs. control (fold), caspase 8 (caspase 8; Experiment 2, 50 uM NO, 60 min): 1.8 fold
- time by which caspase-like activity can decline (caspase-like activity [3]; NO exposure): ≤ 120 min
- time in which caspase-like activity appears (caspase-like activity [3]; NO exposure): ≤ 20 min
- up-regulation of caspase-like activity (caspase-like activity [3]; NO exposure at 50-100 micromolar): 2-3 fold
- expression of a death specific protein (ScDSP-1): induce expression of a death specific protein

Molecule: Ac-DEVD-CHO
- effect on increase in caspase-like activity (caspase-like activity [4]): prevented increase in caspase-like activity
